{"source": "patent US10869850B2", "about": "“Nitrated-fatty acids modulation of type II diabetes” (University of Pittsburgh—Of the Commonwealth System of …, priority 2007, dated 2020)", "key": {"[1]": {"test_system": "WT mice", "assay": "insulin sensitivity in WT mice (FIG. 5)", "format": "in vivo, mouse"}, "[2]": {"assay": "analysis of mouse plasma after intravenous administration of nitro oleic acid", "format": "in vivo", "method": "In contrast, the plasma levels for the β-oxidation products are highest at around 60 minutes."}, "[3]": {"test_system": "ob/ob mice", "conditions": "mouse, in vivo"}, "[4]": {"test_system": "WT mice", "assay": "blood glucose levels in fed WT mice (FIG. 2)", "format": "in vivo, mouse", "excerpt": "Similar results are observed in experiments involving ob/ob mice."}, "[5]": {"test_system": "ob/ob mice", "assay": "insulin sensitivity in ob/ob mice (FIG. 6)", "format": "in vivo, mouse"}, "[6]": {"test_system": "ob/ob mice", "assay": "blood glucose levels in leptin-deficient diabetic ob/ob mice (FIG. 3)", "format": "in vivo, mouse", "conditions": "for blood glucose levels: over the course of the study, FIG. 3", "excerpt": "In a related vein, the invention encompasses a method for gauging the therapeutic efficacy of the composition as described above. This method involves obtaining at least two blood samples from a subject at different times during treatment and measuring the level of blood glucose in each sample."}, "[7]": {"test_system": "ob/ob mice", "assay": "body weight of ob/ob mice (FIG. 4)", "conditions": "entire course of the study"}, "[8]": {"test_system": "WT mice", "assay": "body weight of WT mice (FIG. 4)", "conditions": "course of the study (25 days)"}, "[9]": {"conditions": "following intravenous administration of nitro oleic acid"}}, "note": "“Also recorded” adds a separate entry of the source. Like-named read-outs stand apart in the source and are kept apart here.", "data": [{"compound": "9- or 10-nitro octadecenoic acid [nitro oleic acid]", "values": [{"measurement": "blood glucose levels after administration of insulin", "setting": "[1]", "result": "initial drop in blood glucose levels followed by an elevation to normal levels"}, {"measurement": "shape of plasma level curve as a function of time", "setting": "[2]; [9]", "result": "biphasic"}, {"measurement": "time of peak plasma concentration", "setting": "[2]; [9]", "result": "around 5 minutes"}, {"measurement": "physiological fate (metabolism in vivo)", "setting": "[2]; intravenous administration", "result": "converted in-vivo, to its saturated analog, or can undergo β-oxidative cleavage"}, {"measurement": "side-effects of weight gain and fluid retention", "setting": "[3]", "result": "without the side-effects of weight gain and fluid retention"}, {"measurement": "effectiveness in maintaining blood glucose levels compared with Rosiglitazone", "setting": "[4]; WT mice", "result": "at least as effective as Rosiglitazone"}, {"measurement": "blood glucose level", "setting": "[4]; fed WT mice", "result": "maintains a steady blood glucose level"}, {"measurement": "insulin sensitivity", "setting": "[5]", "result": "improves insulin sensitivity"}, {"measurement": "blood glucose levels after administration of insulin", "setting": "[5]; FIG. 6", "result": "substantial decrease in blood glucose levels"}, {"measurement": "blood glucose levels on day 21 versus beginning of the study", "setting": "[6]; day 21, FIG. 3", "result": "significantly lower on day 21 than at the beginning of the study"}, {"measurement": "blood glucose levels", "setting": "[6]", "result": "lower blood glucose levels; also recorded: effective in reducing blood glucose levels"}]}, {"compound": "CN(CCOc1ccc(CC2SC(=O)NC2=O)cc1)c1ccccn1", "note": "(stereo not drawn) [Rosiglitazone]", "values": [{"measurement": "body weight", "setting": "[7]", "result": "steady increase in body weights"}, {"measurement": "body weight", "setting": "[8]", "result": "do not change over the course of the study"}]}, {"compound": "CCCCCCCC/C=C\\CCCCCCCC(=O)O", "note": "[oleic acid, (Z)-octadec-9-enoic acid, reference compound]", "values": [{"measurement": "body weight", "setting": "[3]", "result": "steady increase in body weights"}, {"measurement": "blood glucose levels", "setting": "[6]", "result": "blood glucose levels increased over the course of the study"}]}]}
